Assays:
C57BL/6 mice = assay: Automated mouse head twitch response (HTR) assay (video tracking); assay type: in vivo; conditions: sc
Experimental: Disclosed compounds were tested for their ability to induce a head twitch response (HTR) in mice using an automated video tracking procedure, with the results summarized in Table 8 and FIG. 4.
Animals. Adult male C57BL/6 mice aged 8-10 weeks (Jackson Labs, Bar Harbor, ME; body weight 18-25 g) were used in this experiment. Animals were group housed under environmentally controlled temperatures and 12-hour light/dark cycles (lights on between 06:00-18:00 h), with ad libitum food and water. Mice were habituated to the facility for at least 5 days prior to testing. All animal procedures were approved by the local IACUC and conducted in accordance with the NIH Guide for the Care and Use of Laboratory Animals.
Procedure. Mice were administered one dose of the drug and immediately placed into a small open field for behavioral observation. High-speed video of animals' behavior was captured continuously for 20 min. Video recordings were imported into an image processing software, which detects multiple points of interest on each animal's body, including the left and right ear. HTR events were defined as periodic deviations of ear locations from temporally averaged ear locations. Predefined thresholds for magnitude and frequency of location deviations were used to filter HTR events from random head movements. The method was validated by comparing detected events with manual (human) observations and found to have an accuracy >95%. The total number of HTR events counted during the 20-min recording and the rate in HTR/min calculated over 2-min bins were determined for each animal at each dose.
Statistical Analysis. The data points shown are the mean±standard error of the mean (SEM).

[1] = target: T1, Alpha2A adrenergic receptor (Homo sapiens, UniProt P08913); assay: Ca2+ flux functional assay at Alpha2A; assay type: cell-based
T1 construct: expressed in transfected cells
T1 sequence (P08913 1-465): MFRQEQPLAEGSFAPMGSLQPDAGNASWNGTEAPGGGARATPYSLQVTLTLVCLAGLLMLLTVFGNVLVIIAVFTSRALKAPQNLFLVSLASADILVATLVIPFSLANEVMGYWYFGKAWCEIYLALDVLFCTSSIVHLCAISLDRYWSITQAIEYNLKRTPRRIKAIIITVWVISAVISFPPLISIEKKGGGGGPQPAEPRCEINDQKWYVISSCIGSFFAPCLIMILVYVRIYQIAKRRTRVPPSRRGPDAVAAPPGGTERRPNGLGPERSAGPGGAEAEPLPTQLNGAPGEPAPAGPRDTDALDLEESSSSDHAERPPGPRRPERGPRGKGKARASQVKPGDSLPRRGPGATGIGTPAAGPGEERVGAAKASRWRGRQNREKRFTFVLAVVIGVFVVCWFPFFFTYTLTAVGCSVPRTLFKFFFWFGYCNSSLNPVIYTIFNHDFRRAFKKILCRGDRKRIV
Experimental: Functional Assays at Adrenergic and Dopamine Receptors. Agonist activity at Alpha1A, Alpha2A, D1, and D2 receptors was determined using a FLIPR Ca^2+ flux assay at WuXi AppTec (Hong Kong) Limited according to their standard protocols. Briefly, stably transfected cells expressing the receptor of interest were grown and plated in a 384 well plate and incubated at 37° C. and 5% CO2 overnight. A solution of 250 mM probenecid in 1 mL FLIPR assay buffer was prepared fresh. This was combined with a fluorescent dye (Fluo-4 Direct™) to make a final assay concentration of 2.5 mM. […] The fluorescent dye was then added to the assay plate along with assay buffer to a final volume of 40 μL. The cell plate was incubated for 50 min at 37° C. and 5% CO2 and placed into the FLIPR Tetra along with the compound plate. 10 μL of references and compounds were then transferred from the compound plate into the cell plate and the fluorescent signal was read.

In the case of `CCCN1C[C@H](C(=O)N(CC)CC)C=C2c3cccc4[nH]cc(c34)C[C@H]21` [Compound 1, (6aR,9R)—N,N-diethyl-7-propyl-4,6,6a,7,8,9-hexahydroindolo[4,3-fg]quinoline-9-carboxamide], the “# HTR/20 min at Most Efficacious Dose” value (C57BL/6 mice; 20 min recording, mean, at each compound's most efficacious dose (35*, 43*, 44*: suppressed below vehicle 14.5, dose is that of least suppression)) is reported as 20.625 HTR/20 min, the “Most Efficacious Dose for Peak HTR/min” value (C57BL/6 mice; dose giving highest peak HTR/min (35*, 43*, 44*: dose that resulted in the least suppression)) is reported as “(0.32) mg/kg, sc” and the “Most Efficacious Dose for # HTR/20 min” value (C57BL/6 mice; dose giving most HTR/20 min (35*, 43*, 44*: dose that resulted in the least suppression)) is reported as “(0.32) mg/kg, sc”. The “Peak HTR/min at Most Efficacious Dose” value (C57BL/6 mice; rate over 2-min bins, mean, at each compound's most efficacious dose (35*, 43*, 44*: suppressed below vehicle 1.62, dose is that of least suppression)) was 2.19 HTR/min, the “maximal efficacy at Alpha2A” value ([1]; "higher" is compared to the N-methyl compound LSD) was “substantially higher maximal efficacy” and the Emax ([1]; agonist, Ca2+ flux, max dose, read-out: Alpha 2A % Act @ Max Dose) was 58.3%.
